Patent publication EP0714912B1, “GMP-140 ligand” (THE BOARD OF REGENTS OF THE UNIVERSITY OF OKLAHOMA, priority 1990, dated 1992)

What was measured:
neutrophils [1] = assay: Specific binding of [125I]GMP-140 to neutrophils (enzyme-treated cells or with competitors); set-up: species or system human; conditions: 6.5 µM of conjugate, 65 µM of oligosaccharide; coupled to bovine serum albumin at about 10:1
immobilized GMP-140 [2] = assay: ELISA (avidin detection) of binding of biotinylated monoclonal antibodies G1, G2, G3 to immobilized GMP-140 in presence of soluble peptide; set-up: species or system human; conditions: for % Binding of Biotinylated MAbs G1: peptide 1.5 mM added to biotinylated mAb G1 (2.5 micrograms/ml) before addition to immobilized GMP-140; for % Binding of Biotinylated MAbs G2: peptide 1.5 mM added to biotinylated mAb G2 (2.5 micrograms/ml) before addition to immobilized GMP-140; for % Binding of Biotinylated MAbs G3: peptide 1.5 mM added to biotinylated mAb G3 (2.5 micrograms/ml) before addition to immobilized GMP-140
Protocol: Based on competitive ELISAs with the purified protein, G1, G2, and G3 each recognize distinct or only partially overlapping epitopes. 1.5 mM peptide was added to biotinylated mAb at a concentration of 2.5 micrograms/ml, which were then added to the wells containing GMP-140, as described in example 1. Binding was measured by an ELISA with an avidin detection system.
The monoclonal antibodies were biotinylated as follows: to 0.5 ml of purified IgG antibody (1 mg/ml in PBS, pH 7.4) was added 50 µl of 3.2 mM N-hydroxysuccinimide biotin in dimethyl sulfoxide and 50 µl of 1 M NaHCO3. After a 2 hour incubation at room temperature in the dark, the reaction was stopped with 50 µl of 1 M NH4Cl. The biotinylated antibody was then separated from other components by gel filtration on a PD-10 column equilibrated in PBS. The ELISA was performed as follows; all steps were performed at room temperature.
Biotinylated antibody (2.5 µg/ml) with or without 1.5 mM peptide was incubated with wells coated with GMP-140 as described in example 1. After a 2 hour incubation, the antibody was removed, the wells were washed, and 0.1 ml of horseradish peroxidase-conjugated stepavidin (Pierce), diluted 1:1,000 in HBSS/HSA, was added for 30 min. The wells were then washed and 0.1 ml of peroxidase substrate (Pierce) was added for 15 min. The color reaction was read at 405 nm.

immobilized GMP-140 [3] = assay: Neutrophil adhesion to purified GMP-140 immobilized on plastic wells (myeloperoxidase read-out); assay type: cell-based, human; conditions: for inhibition of neutrophil adhesion to immobilized GMP-140 by peptides: peptide screen, result in words; for inhibition of binding of neutrophils to immobilized GMP-140, dependence on concentration: 0.1 mM to 1.5 mM peptide, Figure 2
Source text: Peptides were screened for their ability to inhibit neutrophil adhesion to purified GMP-140 immobilized on plastic wells, using the assay described by Geng, et al., Nature 343, 757-760 (1990).
Human neutrophils are isolated from heparinized whole blood by density gradient centrifugation on Mono-Poly resolving media, Flow Laboratories. Neutrophil suspensions are greater than 98% pure and greater than 95% viable by trypan blue exclusion. For adhesion assays, neutrophils are suspended at a concentration of 2 x 10^6 cells/ml in Hanks' balanced salt solution containing 1.26 mM Ca^2+ and 0.81 mM Mg^2+ (HBSS, Gibco) with 5 mg/ml human serum albumin (HBSS/HSA). Adhesion assays are conducted in triplicate in 96-well microtiter plates, Corning, incubated at 4°C overnight with 50 microliters of various protein solutions.
GMP-140 is plated at 5 micrograms/ml and the control proteins: human serum albumin (Alb), platelet glycoprotein IIb/IIIa (IIb), von Willebrand factor (vWF), fibrinogen (FIB), thrombomodulin (TM), gelatin (GEL) or human serum (HS), are added at 50 micrograms/ml. All wells are blocked for 2 h at 22°C with 300 microliters HBSS containing 10 mg/ml HSA, then washed three times with HBSS containing 0.1% Tween-20 and once with HBSS. Cells (2 x 10^5 per well were added to the wells and incubated at 22°C for 20 min. The wells were then filled with HBSS/HSA, sealed with acetate tape (Dynatech), and centrifuged inverted at 150 g for 5 min. After discarding nonadherent cells and supernates, the contents of each well are solubilized with 200 microliters 0.5% hexadecyltrimethylammonium bromide, Sigma, in 50 mM potassium phosphate, pH 6.0, and assayed for myeloperoxidase activity, Ley, et al., Blood 73, 1324-1330 (1989). The number of cells bound was derived from a standard curve of myeloperoxidase activity versus numbers of cells. Under all assay conditions, the cells released less than 5% of total myeloperoxidase and lactate dehydrogenase. Results are presented in Table I. 100% adhesion is that seen in the presence of the C-terminal peptide (amino acid residues 761-777 of GMP-140) as a negative control; this value is the same as controls in which neither peptide nor antibody is added to the cells. Inhibition is read as a lower percent adhesion, so that a value of 5% means that 95% of the specific adhesion was inhibited.
Peptides from the lectin-like domain of GMP-140 were assayed for their ability to inhibit adhesion of neutrophils to immobilized GMP-140 in the assay described in example 1. Concentrations tested ranged from 0.1 mM to 1.5 mM.

neutrophils [4] = assay: Adhesion of neutrophils to microtiter wells coated with lectin peptide 19-34-KLH conjugate or GMP-140; assay type: cell-based, human; conditions: peptide 1.5 mM; Figure 3
Protocol: GMP-140 is plated at 5 micrograms/ml and the control proteins: human serum albumin (Alb), platelet glycoprotein IIb/IIIa (IIb), von Willebrand factor (vWF), fibrinogen (FIB), thrombomodulin (TM), gelatin (GEL) or human serum (HS), are added at 50 micrograms/ml. All wells are blocked for 2 h at 22°C with 300 microliters HBSS containing 10 mg/ml HSA, then washed three times with HBSS containing 0.1% Tween-20 and once with HBSS. […] Inhibition is read as a lower percent adhesion, so that a value of 5% means that 95% of the specific adhesion was inhibited.
Lectin peptide 19-34 was conjugated to the carrier protein keyhole limpet hemocyanin by its N-terminal cysteine by standard procedures such as the commercial Imject kit from Pierce Chemicals. This peptide-KLH conjugate was then tested in the assay described in example 1 and the numbers of cells bound determined. […]

% Binding of Biotinylated MAbs G1 (immobilized GMP-140 [2]) [%]	% Binding of Biotinylated MAbs G2 (immobilized GMP-140 [2]) [%]	% Binding of Biotinylated MAbs G3 (immobilized GMP-140 [2]) [%]	Substance	also measured
–	–	–	sialyl Le^x	inhibition of GMP-140 binding by multivalent neoglycoconjugates (neutrophils [1]): failed to inhibit binding
107	96	111	REPEATS 544-556: control peptide from one of the consensus repeats of GMP-140, amino acids 544-556	–
95	99	94	LECTIN 73-89: synthetic peptide, amino acids 73-89 of the lectin domain of GMP-140 (AENWADNEPNNKRNNED; UniProt P16109 114-130, looked up, fragment)	inhibition of neutrophil adhesion to immobilized GMP-140 by peptides (immobilized GMP-140 [3]): inhibited adhesion
–	–	–	amino acids 66-78: overlapping peptide of amino acids 66-78 of the GMP-140 lectin domain (KKALTNEAENWAD; UniProt P16109 107-119, looked up, fragment)	inhibition of binding of neutrophils to immobilized GMP-140, dependence on concentration (immobilized GMP-140 [3]): inhibited binding in a dose-dependent manner; inhibition of neutrophil adhesion to immobilized GMP-140 by peptides (immobilized GMP-140 [3]): inhibited adhesion; inhibition of neutrophil adhesion to immobilized GMP-140 by peptides (immobilized GMP-140 [3]; listed as amino acids 66 to 78): very active
107	92	104	EGF 128-132: synthetic peptide, amino acids 128-132 of the EGF domain of GMP-140 (SKQGE; UniProt P16109 169-173, looked up, fragment)	–
–	–	–	amino acids 23-30: peptide from the GMP-140 lectin domain, amino acids 23-30 (YTDLVAIQ; UniProt P16109 64-71, looked up, fragment)	inhibition of binding of neutrophils to immobilized GMP-140, dependence on concentration (immobilized GMP-140 [3]): inhibited binding in a dose-dependent manner
98	100	108	LECTIN 110-116: synthetic peptide, amino acids 110-116 of the lectin domain of GMP-140 (LKKKHAL; UniProt P16109 151-157, looked up, fragment)	–
97	104	109	EGF 134-141: synthetic peptide, amino acids 134-141 of the EGF domain of GMP-140 (LETIGNYT; UniProt P16109 175-182, looked up, fragment)	–
100	119	104	TRANSMEMBRANE 755-761: control peptide from the transmembrane region of GMP-140, amino acids 755-761 (RKRFRQK; UniProt P16109 796-802, looked up, fragment)	–
94	92	108	EGF 145-158: synthetic peptide, amino acids 145-158 of the EGF domain of GMP-140 (YPGFYGPECEYVRE; UniProt P16109 186-199, looked up, fragment)	–
–	–	54	LECTIN 19-30: synthetic peptide, amino acids 19-30 of the lectin domain of GMP-140 (CQNRYTDLVAIQ; UniProt P16109 60-71, looked up, fragment)	–
100	100	100	C-TERMINUS 761-777: C-terminal peptide (amino acid residues 761-777 of GMP-140) as a negative control (KDDGKCPLNPHSHLGTY; UniProt P16109 802-818, looked up, fragment) [reference compound]	–
106	125	104	LECTIN 54-72: synthetic peptide, amino acids 54-72 of the lectin domain of GMP-140 (RKNNKTWTWVGTKKALTNE; UniProt P16109 95-113, looked up, fragment)	inhibition of neutrophil adhesion to immobilized GMP-140 by peptides (immobilized GMP-140 [3]): inhibited adhesion
97	93	96	LECTIN 91-108: synthetic peptide, amino acids 91-108 of the lectin domain of GMP-140 (VEIYIKSPSAPGKWNDEH; UniProt P16109 132-149, looked up, fragment)	–
23	26	24	LECTIN 19-34: synthetic peptide, amino acids 19-34 of the lectin domain of GMP-140 (CQNRYTDLVAIQNKNE; UniProt P16109 60-75, looked up, fragment)	inhibition of neutrophil adhesion to immobilized GMP-140 by peptides (immobilized GMP-140 [3]): inhibited adhesion; competition by fluid-phase competitor for neutrophil adhesion to immobilized lectin peptide 19-34-KLH conjugate (neutrophils [4]): compete for adhesion
92	92	104	LECTIN/EGF 118-126: synthetic peptide, amino acids 118-126 of GMP-140 (lectin/EGF domains) (YTASCQDMS; UniProt P16109 159-167, looked up, fragment)	–
–	–	–	amino acids 73-83: peptide from the GMP-140 lectin domain, amino acids 73-83 (AENWADNEPNN; UniProt P16109 114-124, looked up, fragment)	inhibition of binding of neutrophils to immobilized GMP-140, dependence on concentration (immobilized GMP-140 [3]): inhibited binding in a dose-dependent manner
–	–	–	amino acids 54-63: peptide from the GMP-140 lectin domain, amino acids 54-63 (RKNNKTWTWV; UniProt P16109 95-104, looked up, fragment)	inhibition of binding of neutrophils to immobilized GMP-140, dependence on concentration (immobilized GMP-140 [3]): inhibited binding in a dose-dependent manner
